# Experimental data published in patent US20190298735A1, “TREATMENT AND PREVENTION OF CLOSTRIDIUM DIFFICILE COLITIS USING MISOPROSTOL” (Vanderbilt University, priority 2016, published 2019).
# Entries after “also recorded” stand apart in the source; their conditions may differ.
# How the values were obtained:
# NAP1/BI/027 strain M7404 = assay: Misoprostol in acute CDI mouse model (survival, FITC-dextran intestinal permeability, diarrhea); assay type: in vivo, mice; details: for CDI severity: mice, M7404 spores, daily misoprostol IP vs vehicle
# C. difficile strain 630 = assay: Colonization levels of C. difficile in the cecum of infected mice; assay type: in vivo; details: strain 630, 96 hr post infection, misoprostol vs vehicle
# Method: FIG. 5. […] (A) Mice were infected by gavage with 10^6 spores of the NAP1/BI/027 strain […] and treated daily with the PGE analogue misoprostol (or vehicle) by intraperitoneal (IP) injection. n=5 per group. (B) To assess intestinal permeability mice were infected with […] of […] and given misoprostol 20 μg/mouse by IP injection 30 min before infection, 24 hr post-infection and at the time of FITC-dextran treatment. 2 d post infection mice were gavaged with FITC-dextran or vehicle control, then euthanized 4 hr later and concentrations of FITC-dextran in plasma were determined (*P<0.05). (C) Colonization levels of C. difficile strain 630 in the cecum for infected mice exposed to misoprostol or vehicle 96 hr post infection (*P<0.05).
# strain M7404 = assay: Misoprostol in indomethacin-exposed CDI mice; assay type: in vivo, Female C57BL/6 mice
# [1] = system: human esophageal epithelial (HET-1A) cells; details: cited from earlier work
# esophageal ulcer = details: rats, cited from earlier work
# PGE2 EP receptors = details: cited from earlier work
# [2] = human; cited from earlier work
# [3] = mice; cited from earlier work
# [4] = molecular target: T1, prostaglandin E2 receptor 4 (EP4) receptor (Mus musculus, UniProt P32240); details: oral administration, mouse model; cited from earlier work
# T1 construct: endogenous in cells; host or cells: mouse, in vivo (colon tissue); result quoted from Watanabe et al. 2015
# [5] = molecular target: T1, prostaglandin E2 receptor 4 (EP4) receptor; details: another mouse model, oral administration; cited from earlier work
# [6] = system: NAP1 C. difficile strain M7404; assay type: in vivo, C57BL/6 mice; details: mice, NSAID given before or after infection, clinical NAP1/027 isolate; indomethacin 10 mg/kg gavage, ibuprofen 5 mg/kg in drinking water
# C. difficile [7] = assay: Tissue PGE2 (ELISA) and histological colitis score in C. difficile infected mice treated with indomethacin; assay type: in vivo; details: for tissue damage and acute inflammation (colitis): blinded histological score: edema, neutrophilic inflammation, epithelial damage; for tissue PGE2 levels: indomethacin gavage once daily until day +4, ELISA
# Method: FIG. 3. […] (A) Mice were infected with C. difficile and treated with indomethacin by gavage once daily starting on the day of infection until mice were euthanized on day +4. Tissue PGE2 concentrations were measured by ELISA. n=5 mice per group. (B) Histological assessment of colitis was performed in a blinded fashion. The score incorporates edema, neutrophilic inflammation, and epithelial damage. (C and D) Tissue cytokine and chemokine concentrations were measured by ELISA. n=5 mice per group. *P<0.05.
# C. difficile [8] = details: C. difficile-infected mice, cited from earlier work
# T1 sequence (P32240 whole entry): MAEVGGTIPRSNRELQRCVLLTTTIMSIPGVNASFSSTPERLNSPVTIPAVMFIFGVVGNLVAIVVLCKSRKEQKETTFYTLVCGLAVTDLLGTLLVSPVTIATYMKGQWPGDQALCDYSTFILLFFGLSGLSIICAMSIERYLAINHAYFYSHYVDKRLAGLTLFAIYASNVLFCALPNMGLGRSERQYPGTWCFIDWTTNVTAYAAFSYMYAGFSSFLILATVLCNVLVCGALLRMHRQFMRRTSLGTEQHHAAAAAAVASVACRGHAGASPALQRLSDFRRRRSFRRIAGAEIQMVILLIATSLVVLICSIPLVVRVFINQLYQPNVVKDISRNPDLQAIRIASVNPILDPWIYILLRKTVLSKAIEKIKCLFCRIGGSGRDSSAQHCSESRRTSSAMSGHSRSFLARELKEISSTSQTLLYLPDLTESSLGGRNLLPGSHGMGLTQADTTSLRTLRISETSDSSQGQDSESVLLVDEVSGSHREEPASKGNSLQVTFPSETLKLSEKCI
structure (smiles),measurement,setting,value
"CCCC[C@](C)(O)C/C=C/[C@H]1[C@H](O)CC(=O)[C@@H]1CCCCCCC(=O)OC (racemic) [misoprostol, (11a, 13E)-(±)-11,16-dihydroxy-16-methyl-9-oxoprost-13-en-1-oic acid methyl ester]",diarrhea,"NAP1/BI/027 strain M7404; infected mice, misoprostol vs vehicle/placebo",reduced diarrhea; also recorded: fared significantly better
same,CDI severity,NAP1/BI/027 strain M7404,reduced CDI severity
same,CDI severity,NAP1/BI/027 strain M7404; listed as Misoprostol,reduces CDI severity
same,death / survival,"NAP1/BI/027 strain M7404; mouse, in vivo, ip",prevented death; also recorded: fared significantly better
same,C. difficile colonization levels,C. difficile strain 630,reduced C. difficile colonization levels
same,CDI in indomethacin-exposed mice,"strain M7404; INDO 10 mg/kg days −2 and −1, 1×10^4 spores M7404, 20 mg misoprostol i.p. daily",improves CDI
same,"survival, Log-rank (Mantel-Cox) test","strain M7404; mouse, in vivo, ip",not statistically significant
same,VEGF expression,[1],stimulated VEGF expression
same,increase of intracellular cAMP levels,[1],163 fold
same,phosphorylation of CREB,[1],induced phosphorylation of CREB
same,"CREB phosphorylation, VEGF expression and angiogenesis",esophageal ulcer; esophageal ulcer,"enhanced phosphorylation of CREB, stimulated VEGF expression and angiogenesis"
same,esophageal ulcer healing,esophageal ulcer,accelerated esophageal ulcer healing
same,binding to PGE2 EP receptors,PGE2 EP receptors,binds all 4 of the PGE2 EP receptors
same,protection of colonic mucosa against mucosal insults,[2],potently protects human colonic mucosa
"CCCCC[C@H](O)/C=C/[C@H]1[C@H](O)CC(=O)[C@@H]1C/C=C\CCCC(=O)O [PGE2, Prostaglandin E2]",colitis induced by DSS,[3],significantly improved colitis
Nc1ncnc2c1ncn2[C@@H]1O[C@@H]2COP(O)(=S)O[C@H]2[C@H]1O (some centres unmarked) [Rp-cAMP],"action on the effects of misoprostol (cAMP, CREB phosphorylation, VEGF expression)",[1],blocked
Nc1ncnc2c1ncn2[C@@H]1O[C@@H]2COP(O)(=S)O[C@H]2[C@H]1O (some centres unmarked) [Sp-cAMP],"action on the effects of misoprostol (cAMP, CREB phosphorylation, VEGF expression)",[1],mimicked
Cc1cccc([C@@H](C)[C@H](O)/C=C/[C@@H]2[C@@H]3[C@H](C[C@H]2O)O/C(=C\CCCc2nn[nH]n2)C3(F)F)c1 [KAG-308],onset of dextran sulfate sodium-induced colitis and mucosal healing,[4],suppressed onset of dextran sulfate sodium-induced colitis and promoted mucosal healing
same,colorectal carcinogenesis,[5],prevented colorectal carcinogenesis
COc1ccc2c(c1)c(CC(=O)O)c(C)n2C(=O)c1ccc(Cl)cc1 [indomethacin],mortality in CDI,[6],higher mortality
same,tissue damage and acute inflammation (colitis),C. difficile [7],induced more tissue damage and acute inflammation
same,tissue damage and acute inflammation (colitis),C. difficile [7]; listed as Indomethacin,worsens colitis
same,tissue PGE2 levels,C. difficile [7],suppressed tissue PGE2 levels
same,tissue PGE2 levels,C. difficile [7]; listed as Indomethacin,inhibits PGE2 production
CN[C@H](CC(C)C)C(=O)N[C@H]1C(=O)N[C@@H](CC(N)=O)C(=O)N[C@H]2C(=O)N[C@H]3C(=O)N[C@H](C(=O)N[C@H](C(=O)O)c4cc(O)cc(O)c4-c4cc3ccc4O)[C@H](O)c3ccc(c(Cl)c3)Oc3cc2cc(c3O[C@@H]2O[C@H](CO)[C@@H](O)[C@H](O)[C@H]2O[C@H]2C[C@](C)(N)[C@H](O)[C@H](C)O2)Oc2ccc(cc2Cl)[C@H]1O [vancomycin],relapse of colitis after treatment,C. difficile [8]; with increased colonization levels and toxin production,gradual return of colitis by day 16
same,resolution of colitis,C. difficile [8],accelerates resolution of colitis
